One test has as its target T1, full-length human CSNK1D (Homo sapiens, UniProt P48730).
T1 construct: N-terminal Glutathion-S-Transferase (GST) and full-length human CSNK1D; purchased Life Technologies PV3665; host or cells: baculovirus infected insect cells
The test can be described thus: CSNK1D Assay (ADP-Glo, 1 μM ATP). The class given is biochemical. To be noted: Table 3, read-out: CSNK1D IC50 [mol/l] (median). The method in brief: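 Enzyme is N-terminal GST-tagged full-length human CSNK1D from baculovirus-infected insect cells (typically about 0.5 ng/μL), with a biotinylated peptide substrate and 1 μM ATP. Compound pre-incubated 15 min at 22° C in HEPES pH 7.5 buffer; ADP formed is read by ADP-Glo luminescence.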

Test [1] has as its target T2, wild-type Epidermal Growth Factor Receptor (EGFR) (Homo sapiens, UniProt P00533).
T2 construct: a fragment of human EGFR (amino acids R669 to A1210); made in house; host or cells: Sf9 insect cells
The test can be described thus: WT-EGFR Kinase Assay (TR-FRET, 2 mM ATP). Type of test: biochemical. In a few lines:
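GST-fused human EGFR fragment (R669-A1210) from Sf9 cells, typically 7.6 pg/μL, pre-incubated with compound 15 min at 22° C in Hepes pH 7.0 buffer with MgCl2, DTT and vanadate; biotinylated peptide substrate. After EDTA stop, phosphopeptide detected by TR-FRET (anti-phosphotyrosine Tb-cryptate/streptavidin-XL665), 665/620 nm emission ratio.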
For orientation: In TR-FRET formats the signal depends on donor and acceptor labels being close together.

Setting [2] is: read-out: EGFR Wildtyp 2 mM ATP IC50 [mol/l] (median), Table 4.
Where [3] appears, read: EGFR Wildtyp 2 mM ATP IC50 [mol/l] (median), Table 4.

Where two headings read alike, the source gives them in different places.

T2 sequence (P00533 669-1210): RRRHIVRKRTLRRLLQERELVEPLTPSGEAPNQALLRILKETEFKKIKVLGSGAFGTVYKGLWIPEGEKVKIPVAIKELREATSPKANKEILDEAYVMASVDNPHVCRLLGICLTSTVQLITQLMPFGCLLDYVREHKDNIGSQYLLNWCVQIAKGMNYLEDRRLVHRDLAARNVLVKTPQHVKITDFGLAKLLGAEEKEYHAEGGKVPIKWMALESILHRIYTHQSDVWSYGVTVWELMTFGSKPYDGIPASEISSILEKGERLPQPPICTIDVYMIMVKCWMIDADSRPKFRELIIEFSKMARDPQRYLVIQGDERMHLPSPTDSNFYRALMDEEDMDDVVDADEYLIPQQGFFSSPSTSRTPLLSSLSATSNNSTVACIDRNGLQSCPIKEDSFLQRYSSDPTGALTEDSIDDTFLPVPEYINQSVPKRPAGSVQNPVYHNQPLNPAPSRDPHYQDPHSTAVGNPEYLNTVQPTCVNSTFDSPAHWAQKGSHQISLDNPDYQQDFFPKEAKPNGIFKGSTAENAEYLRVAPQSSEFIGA
T1 sequence (P48730 whole entry): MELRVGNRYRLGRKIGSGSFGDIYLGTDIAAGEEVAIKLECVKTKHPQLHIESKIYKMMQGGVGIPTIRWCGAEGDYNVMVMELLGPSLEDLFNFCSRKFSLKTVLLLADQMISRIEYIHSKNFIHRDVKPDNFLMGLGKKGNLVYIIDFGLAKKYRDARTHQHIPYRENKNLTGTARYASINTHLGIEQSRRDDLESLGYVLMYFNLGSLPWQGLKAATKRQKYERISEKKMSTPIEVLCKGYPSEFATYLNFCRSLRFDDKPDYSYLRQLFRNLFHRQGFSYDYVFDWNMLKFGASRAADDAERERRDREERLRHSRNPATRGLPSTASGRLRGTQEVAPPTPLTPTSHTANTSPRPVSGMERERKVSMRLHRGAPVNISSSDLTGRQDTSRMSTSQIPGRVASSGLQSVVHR

Regarding `O=C(Nc1cc(-c2[nH]c3c(OCC(F)F)cc(F)nc3c2-c2ccccn2)ccn1)C(CC(F)F)c1ccc(F)cc1` (single isomer, unassigned) [Example 30, (2R or S)—N-{4-[7-(2,2-difluoroethoxy)-5-fluoro-3-(pyridin-2-yl)-1H-pyrrolo[3,2-b]pyridin-2-yl]pyridin-2-yl}-4,4-difluoro-2-(4-fluorophenyl)butanamide], the IC50 was 14.7 nM on full-length human CSNK1D and above 20000 nM in test [1] (setting [2]).
Regarding `O=C(Nc1cc(-c2[nH]c3c(OCC(F)(F)F)ncnc3c2-c2ccccn2)ccn1)C(CC(F)(F)F)c1ccc(F)cc1` (racemic) [Example 125, (2RS)-4,4,4-trifluoro-2-(4-fluorophenyl)-N-{4-[7-(pyridin-2-yl)-4-(2,2,2-trifluoroethoxy)-5H-pyrrolo[3,2-d]pyrimidin-6-yl]pyridin-2-yl}butanamide], the IC50 at full-length human CSNK1D was 14.2 nM; in test [1] (setting [3]) it was above 20000 nM.
Taken in the same sequence, the figures for `O=C(Nc1cc(-c2[nH]c3ccc(F)nc3c2-c2ccc(F)cn2)ccn1)C(CC(F)F)c1ccc(F)cc1` (single isomer, unassigned; (+)) [Example 109, (+)-4,4-difluoro-N-{4-[5-fluoro-3-(5-fluoropyridin-2-yl)-1H-pyrrolo[3,2-b]pyridin-2-yl]pyridin-2-yl}-2-(4-fluorophenyl)butanamide] were 3.41 nM and above 20000 nM.
Taken in the same sequence, the figures for `O=C(Nc1cc(-c2[nH]c3c(C4CCCO4)cc(F)nc3c2-c2ccccn2)ccn1)C(CC(F)F)c1ccc(F)cc1` (single isomer, unassigned) [Example 116, (2R or S)-4,4-difluoro-N-(4-{5-fluoro-7-[(2R or S)-oxolan-2-yl]-3-(pyridin-2-yl)-1H-pyrrolo[3,2-b]pyridin-2-yl}pyridin-2-yl)-2-(4-fluorophenyl)butanamide] were 4.25 nM and 15100 nM.
Take `O=C(Nc1cc(-c2[nH]c3cncnc3c2-c2ccccn2)ccn1)C(CC(F)F)c1ccc(F)cc1` (single isomer, unassigned; (+)) [Example 15, (+)-4,4-difluoro-2-(4-fluorophenyl)-N-{4-[7-(pyridin-2-yl)-5H-pyrrolo[3,2-d]pyrimidin-6-yl]pyridin-2-yl}butanamide]: the IC50 was 3.06 nM on full-length human CSNK1D and above 20000 nM in test [1] (setting [2]).
As for `O=C(Nc1cc(-c2[nH]c3nc(OC(F)F)cnc3c2-c2ccccn2)ccn1)C(CC(F)F)c1ccc(F)cc1` (centres unmarked) [Example 105, N-{4-[3-(difluoromethoxy)-7-(pyridin-2-yl)-5H-pyrrolo[2,3-b]pyrazin-6-yl]pyridin-2-yl}-4,4-difluoro-2-(4-fluorophenyl)butanamide], the IC50 on full-length human CSNK1D is 12.3 nM; in test [1] (setting [3]), above 20000 nM.
Taken in the same sequence, the figures for `O=C(Nc1cc(-c2[nH]c3c(CC4CC4)cc(F)nc3c2-c2ccccn2)ccn1)C(CC(F)F)c1ccc(F)cc1` (racemic) [Example 46, (2RS)—N-{4-[7-(cyclopropylmethyl)-5-fluoro-3-(pyridin-2-yl)-1H-pyrrolo[3,2-b]pyridin-2-yl]pyridin-2-yl}-4,4-difluoro-2-(4-fluorophenyl)butanamide] were 19.2 nM and above 20000 nM.
With `COc1cc(F)nc2c(-c3ccccn3)c(-c3ccnc(NC(=O)C(CC(F)F)c4ccc(F)cc4)c3)[nH]c12` (single isomer, unassigned; (+)) [Example 40, (+)-4,4-difluoro-N-{4-[5-fluoro-7-methoxy-3-(pyridin-2-yl)-1H-pyrrolo[3,2-b]pyridin-2-yl]pyridin-2-yl}-2-(4-fluorophenyl)butanamide], the IC50 on full-length human CSNK1D was 5.57 nM; in test [1] (setting [3]) it was above 20000 nM.
`Cc1cc2[nH]c(-c3ccnc(NC(=O)C(CC(F)F)c4ccc(F)cc4)c3)c(-c3ccccn3)c2nc1F` (single isomer, unassigned) [Example 34, 4,4-difluoro-N-{4-[5-fluoro-6-methyl-3-(pyridin-2-yl)-1H-pyrrolo[3,2-b]pyridin-2-yl]pyridin-2-yl}-2-(4-fluorophenyl)butanamide]: the figures for the IC50 (at full-length human CSNK1D; in test [1] (setting [3])) were 6.86 nM and above 20000 nM, respectively.
For `O=C(Nc1cc(-c2[nH]c3cccnc3c2-c2ccccn2)ccn1)C(CC(F)F)c1ccc(F)cc1` (single isomer, unassigned; (-)) [Example 12, (−)-4,4-difluoro-2-(4-fluorophenyl)-N-{4-[3-(pyridin-2-yl)-1H-pyrrolo[3,2-b]pyridin-2-yl]pyridin-2-yl}butanamide], the IC50 is 12.4 nM on full-length human CSNK1D and above 20000 nM in test [1] (setting [2]).
For `O=C(Nc1cc(-c2[nH]c3nccnc3c2-c2ccccn2)ccn1)[C@@H](CC(F)F)c1ccc(F)cc1` (single isomer, unassigned) [Example 32], the IC50 at full-length human CSNK1D is 4.55 nM; in test [1] (setting [3]) it was above 20000 nM.
On to `O=C(Nc1cc(-c2[nH]c3cccnc3c2-c2ncccn2)ccn1)C(CC(F)F)c1ccc(F)cc1` (racemic) [Example 112, (2RS)-4,4-difluoro-2-(4-fluorophenyl)-N-[4-(3-pyrimidin-2-yl-1H-pyrrolo[3,2-b]pyridin-2-yl)-2-pyridyl]butanamide], for which the figures for the IC50 (at full-length human CSNK1D; in test [1] (setting [3])) were 16.9 nM and above 20000 nM, respectively.
The like results for `Cc1ccc2[nH]c(-c3ccnc(NC(=O)C(CC(F)F)c4ccc(F)cc4)c3)c(-c3ccccn3)c2n1` (racemic) [Example 4, 4,4-difluoro-2-(4-fluorophenyl)-N-{4-[5-methyl-3-(pyridin-2-yl)-1H-pyrrolo[3,2-b]pyridin-2-yl]pyridin-2-yl}butanamide] were, in that order, 9.45 nM and above 20000 nM.
For the molecule `O=C(Nc1cc(-c2[nH]c3c(C4CCCO4)cc(F)nc3c2-c2ccccn2)ccn1)C(CC(F)F)c1ccc(F)cc1` (single isomer, unassigned) [Example 117, (2R or S)-4,4-difluoro-N-(4-{5-fluoro-7-[(2R or S)-oxolan-2-yl]-3-(pyridin-2-yl)-1H-pyrrolo[3,2-b]pyridin-2-yl}pyridin-2-yl)-2-(4-fluorophenyl)butanamide], the IC50 on full-length human CSNK1D is 28 nM; in test [1] (setting [3]), above 20000 nM.
Turning to `O=C(Nc1cc(-c2[nH]c3cccnc3c2-c2cccc(F)n2)ccn1)C(CC(F)F)c1ccc(F)cc1` (single isomer, unassigned; (+)) [Example 27, (+)-4,4-difluoro-2-(4-fluorophenyl)-N-{4-[3-(6-fluoropyridin-2-yl)-1H-pyrrolo[3,2-b]pyridin-2-yl]pyridin-2-yl}butanamide], the IC50 at full-length human CSNK1D is 4.05 nM; in test [1] (setting [2]), above 20000 nM.
Taken in the same sequence, the figures for `O=C(Nc1cc(-c2[nH]c3c(N4CCNCC4)ccnc3c2-c2ccccn2)ccn1)C(CC(F)F)c1ccc(F)cc1` (single isomer, unassigned) [Example 94, (2R or S)-4,4-difluoro-2-(4-fluorophenyl)-N-{4-[7-(piperazin-1-yl)-3-(pyridin-2-yl)-1H-pyrrolo[3,2-b]pyridin-2-yl]pyridin-2-yl}butanamide] were 3.67 nM and above 20000 nM.
For the molecule `Cc1cnc2c(-c3ccccn3)c(-c3ccnc(NC(=O)C(CC(F)F)c4ccc(F)cc4)c3)[nH]c2c1` (single isomer, unassigned) [Example 8, 4,4-difluoro-2-(4-fluorophenyl)-N-{4-[6-methyl-3-(pyridin-2-yl)-1H-pyrrolo[3,2-b]pyridin-2-yl]pyridin-2-yl}butanamide], the IC50 was 4.01 nM on full-length human CSNK1D and above 20000 nM in test [1] (setting [3]).
In the case of `COc1cnc2c(-c3ccccn3)c(-c3ccnc(NC(=O)C(CC(F)F)c4ccc(F)cc4)c3)[nH]c2n1` (single isomer, unassigned) [Example 103, 4,4-difluoro-2-(4-fluorophenyl)-N-{4-[3-methoxy-7-(pyridin-2-yl)-5H-pyrrolo[2,3-b]pyrazin-6-yl]pyridin-2-yl}butanamide], the IC50 at full-length human CSNK1D is 4.3 nM; in test [1] (setting [2]) it was above 20000 nM.
Regarding `O=C(Nc1cc(-c2[nH]c3cc(F)cnc3c2-c2ccccc2)ccn1)C(CC(F)F)c1ccc(F)cc1` (single isomer, unassigned; (+)) [Example 21, (+)-4,4-difluoro-2-(4-fluorophenyl)-N-[4-(6-fluoro-3-phenyl-1H-pyrrolo[3,2-b]pyridin-2-yl)pyridin-2-yl]butanamide], the IC50 on full-length human CSNK1D was 3.59 nM; in test [1] (setting [2]), above 20000 nM.
As for `O=C(Nc1cc(-c2[nH]c3c(Cl)ccnc3c2-c2ccccn2)ccn1)C(CC(F)F)c1ccc(F)cc1` (racemic) [Example 49, (2RS)—N-{4-[7-chloro-3-(pyridin-2-yl)-1H-pyrrolo[3,2-b]pyridin-2-yl]pyridin-2-yl}-4,4-difluoro-2-(4-fluorophenyl)butanamide], the IC50 on full-length human CSNK1D was 7.69 nM; in test [1] (setting [3]) it was above 20000 nM.
The like results for `O=C(Nc1cc(-c2[nH]c3nccnc3c2-c2ccccn2)ccn1)C(CC(F)(F)F)c1ccc(F)cc1` (single isomer, unassigned) [Example 120, (2R or S)-4,4,4-trifluoro-2-(4-fluorophenyl)-N-{4-[7-(pyridin-2-yl)-5H-pyrrolo[2,3-b]pyrazin-6-yl]pyridin-2-yl}butanamide] were, in that order, 4.35 nM and above 20000 nM.
As for `Cc1cc(F)nc2c(-c3ccccn3)c(-c3ccnc(NC(=O)C(CC(F)F)c4ccc(F)cc4)c3)[nH]c12` (single isomer, unassigned; (-)) [Example 38, (−)-4,4-difluoro-N-{4-[5-fluoro-7-methyl-3-(pyridin-2-yl)-1H-pyrrolo[3,2-b]pyridin-2-yl]pyridin-2-yl}-2-(4-fluorophenyl)butanamide], the figures for the IC50 (on full-length human CSNK1D; in test [1] (setting [3])) were 3.8 nM and above 20000 nM, respectively.

The values above are taken from patent US12692261B2, “Substituted heterocyclic compounds and therapeutic uses thereof” (Bayer Aktiengesellschaft, priority 2020, dated 2026).
